Here are results for seven molecules from PubChem BioAssay (NCI).

Each structure is given as a SMILES string. Where “and” joins values, the source holds several entries; their conditions need not be identical. Equal entries are not always repeated.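 Values below derive from 48-hour exposures of cells grown in 96-well plates, with endpoints linearly interpolated between the two concentrations bracketing the appropriate inhibition level. Here, GI50 denotes the concentration required for 50% inhibition of growth. TGI is the concentration that stops growth completely.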 Where only a bound is given, the exact number is not on record here.

Holding throughout (experiment): inhibition of tumour cell growth, NCI panel, 48 h
Experiment [1] relates to 786-0 renal.
The subject of experiment [2] is CCRF-CEM leukemia.
Experiment [3] relates to HCT-116 colon.
The subject of experiment [4] is HOP-62 NSCLC.
The test system of experiment [5] is MALME-3M melanoma.
The test system of experiment [6] is NCI-H460 lung.
Experiment [7] has as its system OVCAR-5 ovarian.
For experiment [8], the system named is SN12C renal.
Experiment [9] has as its system SW-620 colon.
Experiment [10] deals with T-47D breast.

As for `COc1ccc2nc3ccccc3c(NCCNCC(C)O)c2c1` (centres undefined), the GI50 was 0.306 µM in experiment [1]; 0.436 µM in [2]; 0.241 µM in experiment [3]; 0.369 µM in [4]; 0.426 µM in experiment [5]; 0.276 µM in experiment [6]. Also, the GI50 in experiment [7] is 0.377 µM; in experiment [8] it was 0.253 µM; in experiment [9] it was 0.3 µM; in experiment [10] it was 0.465 µM. Further, the TGI in experiment [1] came to 1.83 µM; in [2], 3.47 µM; in experiment [3], 1.41 µM; in [4], 2.57 µM; in [5], 1.72 µM; in [6], 10.4 µM. Moreover, the TGI in experiment [7] stood at 5.01 µM; in [8], 2.22 µM; in [9] it was 12.5 µM; in experiment [10] it was 6.27 µM.
For the molecule `CC/C=C\C[C@H]1C/C=C2/C(=O)C(Cl)=C[C@@H]2C/C=C\CCCC(=O)O1`, the GI50 in [1] is 0.521 µM; in [2], 0.143 µM; in experiment [3], 0.205 µM; in experiment [4], 0.49 µM; in [5], 0.398 µM; in [6], 0.545 µM. The GI50 in experiment [7] was 0.592 µM; in experiment [8] it was 0.575 µM; in [9], 0.0995 µM; in experiment [10], 0.58 µM. Also, the TGI in experiment [1] stood at 1.19 µM; in experiment [2], 2.64 µM; in experiment [3], 0.859 µM; in [4] it was 1.31 µM; in experiment [5], 1.22 µM; in [6], 1.89 µM. In addition, the TGI in experiment [7] was determined as 1.84 µM; in [8], 2.57 µM; in [9], 0.596 µM; in experiment [10] it was 2.36 µM.
For the molecule `N=C(CC(=O)Nc1ccccn1)c1ccccc1`, the TGI in experiment [1], in experiment [2], in [3], in [4], in [5] and in experiment [6] was more than 100 µM each time. The TGI in experiment [7], in experiment [8], in experiment [9] and in experiment [10] was more than 100 µM each time.
Take `CNC(=O)c1cc(Oc2ccc(NC(=O)Nc3cc(C(C)(C)C)nn3-c3ccc4ncccc4c3)c(F)c2)ccn1`: the GI50 in [1] is 2.69 µM and 3.08 µM; in experiment [2] it was 2.35 µM and 2.57 µM; in experiment [3], 1.41 µM and 1.37 µM; in experiment [4], 2.24 µM and 2.2 µM; in [5] it was 0.212 µM and 0.0536 µM; in experiment [6] it was 2.06 µM and 2.04 µM. Further, the GI50 in experiment [7] is 2.1 µM and 3.34 µM; in experiment [8], 0.646 µM and 0.484 µM; in [9] it was 3.51 µM and 3.16 µM; in [10], 0.907 µM and 1.79 µM. The TGI in experiment [1] was 8.13 µM and 8.95 µM; in experiment [2] it was 8.36 µM and > 31.6 µM; in [3], 7.28 µM and 5.94 µM; in experiment [4], 7.56 µM and 7.34 µM; in experiment [5], 1.31 µM and 0.5 µM; in experiment [6] it was 8.11 µM and 6.93 µM. Moreover, the TGI in experiment [8] was 5.74 µM and 4.68 µM; in experiment [9], more than 29.6 µM; in experiment [10] it was 7.17 µM and > 29.3 µM.
In the case of `O=C1/C(=C/c2ccc([N+](=O)[O-])o2)Oc2ccc(Cl)cc21`, the GI50 is 2.72 µM in experiment [1]; 0.429 µM in [2]; 0.648 µM in experiment [3]; 4.53 µM in [4]; 2.1 µM in experiment [5]; 3 µM in experiment [6]. For the same molecule, the GI50 was 2.63 µM in experiment [7], 2.2 µM in experiment [8], 0.541 µM in [9] and 1.67 µM in experiment [10]. Also, the TGI in [1] came to 7.06 µM; in experiment [2], 2.24 µM; in experiment [3], 2.01 µM; in experiment [4] it was 23.9 µM; in experiment [5], 4.47 µM; in experiment [6] it was 15.4 µM. Also, the TGI in [7] amounted to 7.5 µM; in experiment [8] it was 5.67 µM; in experiment [9], 1.99 µM; in [10] it was 5.02 µM.
As to `COc1ccc2c(c1)-c1c(c3cc(OC)ccc3n(CCN(C)C)c1=O)C2=O`, the GI50 is 2.35 µM in experiment [1]; 0.199 µM in [2]; 0.241 µM in experiment [3]; 0.676 µM in [4]; 1.17 µM in [5]; 0.341 µM in [6]. Besides, the GI50 in experiment [7] was 3.14 µM; in experiment [8], 0.32 µM; in experiment [9], 0.208 µM; in [10], 3.23 µM. Besides, the TGI in [1] came to 9.42 µM; in experiment [2], 1.76 µM; in experiment [3], 6.85 µM; in experiment [4], 12.1 µM; in experiment [5] it was 5.65 µM; in experiment [6], 2.09 µM. Besides, the TGI in experiment [7] is 12.7 µM; in experiment [8] it was 6.16 µM; in experiment [9], 2.95 µM; in experiment [10], 11.4 µM.
For the molecule `CC12O[C@H](C[C@@H](OC(=O)CCC(=O)O)[C@H]1O)n1c3ccccc3c3c4c(c5c6ccccc6n2c5c31)C(=O)NC4=O`, the GI50 in experiment [1] is 2.14 µM; in experiment [2] it was 1.57 µM; in [3], 1.5 µM; in [4], 0.834 µM; in experiment [5] it was 0.2 µM; in experiment [6], 1.46 µM. Also, the GI50 is 7.87 µM in experiment [7], 2.47 µM in [8], 1.43 µM in experiment [9] and 0.83 µM in [10]. Also, the TGI in experiment [1] amounted to 11.3 µM; in experiment [2], 13.4 µM; in [3], 9.8 µM; in experiment [4], 10.7 µM; in [5], 2.36 µM; in experiment [6], 12.2 µM. For the same molecule, the TGI in experiment [7] is more than 50 µM; in [8] it was 24.5 µM; in experiment [9], 13.4 µM; in experiment [10], more than 50 µM.
